Records with an inconclusive call do not appear.
System: M. tuberculosis H37Rv growth inhibition, 7H9 media
Test: M. tuberculosis growth inhibition, HTS (AID 449762);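 note: bacterial growth assessed after seven days of incubation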
Details: for IC90: measured here: IC90 growth inhibition

SMILES | IC50 [µM] | IC90 [µM]
COc1ccc(N=c2cc(-c3ccc(O)cc3)oc3ccccc23)cc1 | 22.3 | 25.8
CN(C)CCCN1c2ccccc2Sc2ccc(Cl)cc21 | 51.6 | 59
C=C1C(=O)O[C@@H]2C[C@@H](C)[C@@H]3C4OC4C(=O)[C@@]3(C)[C@@H](O)[C@H]12 (stereo partly drawn) | 3.64 | 9.39
OC(CNCCc1ccc(C(F)(F)F)cc1)COC(c1ccccc1)c1ccccc1 (stereo not drawn) | 16.7 | 21.2
COc1ccc(-c2nsc3c(N4CCCCC4C)ncnc23)cc1 (stereo not drawn) | 41.2 | 56.8
CCOC(=O)c1c(NC(=O)CSc2nc3ccc(OC)cc3[nH]2)sc2c1CC(C)(C)NC2(C)C | 21.1 | 26.2
Cc1ccc(/C=C/S(=O)(=O)NCC(=O)OCC(=O)Nc2c(F)cccc2F)cc1 | 5.26 | 13.2
CCOCCN1CCN(c2c(CC)c(C)nc3cc(-c4cc(OC)cc(OC)c4)nn23)CC1 | 25.5 | 38.9
O=c1[nH][nH]c(-c2ccccc2O)c1C(C[N+](=O)[O-])c1cccc(Cl)c1 (stereo not drawn) | 74.6 | > 100
Cc1ccc(Nc2nc(CSc3nnc(-c4cccs4)o3)cs2)cc1 | 40.7 | > 100
COc1cc(OC)nc(-n2ncc(Br)c(Br)c2=O)n1 | 4.28 | 60.7
COc1ccccc1N(O)C1CC(=O)N(c2ccc(Br)cc2)C1=O (stereo not drawn) | 16.8 | 32.3
Cc1ccc(O)c(C(=O)CC(=O)c2ccccc2Cl)c1 | 10.7 | 40.1
CNC(=O)COC(=O)c1ccc(-c2nc3ccccc3s2)s1 | 2.07 | 23
NC(=O)CSc1nnc(COc2ccc3ccccc3c2)o1 | 1.75 | > 100
CCCCC(=O)OCC(=O)N1N=C(c2c[nH]c3ccccc23)C(O)C1c1ccc(OC)cc1 (stereo not drawn) | 10.6 | 15.9
O=C(CSc1nnnn1C1CCCCC1)Nc1nc2c(s1)CCCC2 | 30.7 | 59.3
CC(C)CNc1nnnc2c1sc1nc(N3CCOCC3)c3c(c12)CC(C)(C)SC3 | 74 | > 100
Cc1ccc(NC(=O)CSc2nc3ccccc3c(=O)n2CCCN2CCCCC2)cc1Cl | 39 | 55.5
CCOc1cc(C(=O)OCc2ccc(C(=O)OC)o2)cc(Br)c1OC | 61.7 | > 100
Cc1nn(-c2ccccc2)c(Cl)c1/C=C/C(=O)c1ccccc1 | 49.1 | 56.7
CC1CC(C)(C)Nc2ccc(OC(=O)c3ccco3)cc21 (stereo not drawn) | 6.31 | 16.4
CC1=NN(c2ccccc2)C(=O)C1C(=O)c1ccccc1 (stereo not drawn) | 25.7 | 53

SMILES | IC50 [µM] | IC90 [µM]
N#CC(C(=O)Nc1ccccc1)=C1Nc2ccccc2N1 | 34.9 | > 100
FC(F)(Cl)c1nnc2ccc(Cl)nn12 | 0.26 | 0.86
C=C1CCC[C@]2(C)C[C@H]3OC(=O)C(CNC(C)CCCC(C)C)[C@H]3CC12 (stereo partly drawn) | 22.4 | 24.2
CCOC(=O)c1ccc(-c2c(-c3ccc4c(c3)OCO4)noc2C)cc1F | 33.3 | 54
COC(=O)C(Cc1ccc(OC(=O)c2ccc(C(F)(F)F)cc2)cc1)N1Cc2ccccc2C1=O (stereo not drawn) | – | > 100
Cc1cc(C)c(C)c(N=Nc2nc3ccccc3n2C)c1C | 6.16 | 6.93
COC(=O)C1=C(c2ccc(OCc3ccccc3)cc2)C[C@@H]2CC[C@H]1N2C(=O)NC1CCN(Cc2ccccc2)CC1 | 24.4 | 27.5
CCCCCCCCCCCCCCCC[N+](C)(C)CC | 30.3 | 43
CCOC(=O)c1csc(-c2snnc2C)n1 | 21.4 | 52
Cc1cc(C(=O)CCl)c(C)n1-c1cccc([N+](=O)[O-])c1 | < 0.2 | 1.54
COC(=O)C1C2c3ccccc3OC1(C)N=c1s/c(=C/c3cnn(C)c3C)c(=O)n12 (stereo not drawn) | 0.97 | 13.1
C=CC[n+]1ccn(-c2nc3ccccc3nc2[N-]S(=O)(=O)c2cccs2)c1 | 25 | 28.1
CCNc1nc(NC(C)(C)C)nc(N2CCCCC2)n1 | 99.6 | > 100
CN1CCN(C2Cc3ccccc3Sc3cc(C(F)(F)F)ccc32)CC1 (stereo not drawn) | 13.5 | 15.6
Cc1nc(SCC(=O)NC2CCCCC2)[nH]c(=O)c1C | < 0.2 | < 0.2
O=C(OCC(=O)N1CCCCC1)c1cc2ccccc2cc1O | 5 | 9.61
CCCCCc1ccc(S(=O)(=O)NCCc2ccncc2)cc1 | 34.1 | 42.8
Cc1ccccc1CSc1nsc(N)n1 | 6.7 | 19.6
O=C(CSc1n[nH]c(-c2ccccc2)n1)Nc1ccc(Br)cn1 | – | > 100
CC(=NCc1ccc2c(c1)OCO2)C1=C(O)c2ccccc2C1=O | 1.09 | > 100
Cc1nc2ccc(NC(=O)N(C(C)C)C(C)C)cc2s1 | – | > 100
CCOC(=O)c1cnc(Nc2nc3ccccc3o2)nc1CSC(=S)N(CC)CC | 20.5 | 25.4
O=C(NCCN1CCN(c2cccc(Cl)c2)CC1)c1ccc(CSc2nc3ccncc3[nH]2)cc1 | 23.2 | 35.3

SMILES | IC50 [µM] | IC90 [µM]
Clc1ccc(CSc2ncn[nH]2)cc1 | – | > 100
COCCCn1c(SCc2cccc(OC)c2)nc2cc(OC)c(OC)cc2c1=N | 37 | 49
COc1cc(-c2ccc3oc(-c4ccsc4)cc(=O)c3c2)cc(OC)c1OC | 2.07 | 17.6
CCCc1cc(=O)n2[nH]c(C)c(-c3ccc(Cl)cc3)c2n1 | 6.8 | 18.1
C#CCOC(=O)/C(=C/C=C/c1ccccc1)NC(=O)c1ccccc1 | 3.82 | 43.3
CC(C)[C@H](CO)N(Cc1cccc(F)c1)c1nc(Nc2cccc(Cl)c2)c2ncn(C(C)C)c2n1 | 23.2 | 35.4
CN1CCN(C2=Cc3ccc(Cl)cc3Sc3ccc(F)cc32)CC1 | 22.7 | 32.9
Cc1cc(-c2c(C)[nH]n(-c3ccccc3)c2=O)n[nH]1 | 5.54 | 25.5
Cc1c(Cl)ccc2sc(N3CCN(C(=O)C4=COCCO4)CC3)nc12 | 26.2 | 59
Cc1c(C(=O)N(C)C)sc2nc(-c3ccccn3)[nH]c(=O)c12 | 5.89 | 16.9
Cc1cc(C)nc(-n2nc(C)cc2NC(=O)CN2CCC(C)CC2)n1 | 6.86 | 16.9
Cc1ccc(-c2nc3c(c(=O)c4ccccc4n3C)c(=O)n2Cc2ccco2)cc1 | 11.4 | 36.3
Nc1[nH]n2c(=O)cc(-c3ccccc3)nc2c1N=Nc1ccc2c(c1)OCO2 | 23.4 | 26.6
O=C1C=C(c2ccc3[nH]ccc3c2)C[C@@H](c2ccc(Cl)cc2)C1 | 75.3 | > 100
Cc1nc(-c2nc(-c3c(C(=O)NNC(=O)c4ccc(Cl)cc4)noc3C)cs2)cs1 | 7.57 | 18.2
Nc1c(C(=O)O)cnc2c(-c3ccc(Cl)cc3)cnn12 | 25.5 | 55.6
CNc1ncnc2c1ncn2[C@@H]1O[C@H](CO)[C@@H](O)[C@H]1O | 2.68 | 5.73
Nc1ccc2cc(Br)ccc2c1 | 51.8 | 84.9
O=C(NCCC1=CCCCC1)NC12CC3CC(CC(C3)C1)C2 | < 0.2 | 0.34
c1ccc(-c2nc3nonc3nc2-c2ccccc2)cc1 | 33.5 | 43.9
CC(C)(C)c1ccc(C(=O)CSc2n[nH]c(=O)[nH]c2=O)cc1 | 7.69 | 25.4
CC(C(Sc1ccccc1N)c1ccccc1)[N+](=O)[O-] (stereo not drawn) | 19.4 | > 100
CCOc1cc(-c2c(C#N)c(=O)[nH]c3c2c(C)nn3-c2ccc(F)cc2)ccc1O | 1.21 | 4.98

SMILES | IC50 [µM] | IC90 [µM]
Cc1cc(OCc2cc(C(=O)N(C)CCc3cnn(C)c3)no2)cc(C)c1Cl | 26.9 | 51.4
COc1cc(NC(=O)c2ccc(COc3ccccc3Br)o2)cc(OC)c1OC | 44.3 | > 100
O=C(NC(C(=O)N/N=C/c1cccc2ccccc12)c1n[nH]c(=O)c2ccccc12)c1ccccc1 (stereo not drawn) | 53.2 | > 100
C[C@]12CC[C@@H]3c4ccc(O)cc4CC[C@H]3[C@@H]1CC[C@@H]2OC(=O)CCC1CCCC1 | 6.41 | 10.9
Cc1nc(Nc2ccc(Cl)c(Cl)c2)sc1C(=O)Nc1ccccc1 | 19.2 | > 100
O=c1cc(CCl)nc(Cc2c(Cl)cccc2Cl)[nH]1 | 0.51 | 68.7
CCCCn1c(NCc2ccc3c(c2)OCO3)nc2ccccc21 | 19 | 31.1
O=[N+]([O-])c1cc(C=Nc2ccc3ccccc3c2)ccc1Br | 33.5 | 45.6
CCOc1ccc(CN(C)CC(O)COC(c2ccc(OC)cc2)c2ccc(OC)cc2)cc1 (stereo not drawn) | 10.5 | 13.4
CC(c1nc2ccccc2c(=O)[nH]1)N(C)CCOc1ccc(Cl)cc1 (stereo not drawn) | 40.4 | 51.7
CCN1C(N(C)CCc2c[nH]c3ccccc23)=N[C@@H](c2cccc(C(F)(F)F)c2)C(C(=O)OC)=C1C | 21.5 | 23.7
Cc1ccc(Cl)cc1N1CCN(C(=O)C2CCC(=O)N(C3CCCCCC3)C2)CC1 (stereo not drawn) | 19.3 | 28.6
CCOC(=O)c1cnc(SC2CCc3ccccc3C2=O)nc1N (stereo not drawn) | 70.8 | 88.7
CCN(CC)CCOC(=O)c1ccc(N/C=C(/C#N)c2nc(-c3ccc4c(c3)OCO4)cs2)cc1 | 28.4 | 53.3
COc1cccc(C2C3=C(N=c4s/c(=C\c5cccc(O)c5)c(=O)n42)c2ccccc2CC3)c1OC (stereo not drawn) | 23.3 | 27.1
N#Cc1nc(-c2ccc(OCc3ccccc3)cc2)oc1NCCCn1ccnc1 | 26.7 | 35.5
CC1CCCCC1NC(=O)c1ccc2c(c1)[nH]c(=O)n2C1CCCC1 (stereo not drawn) | 5.15 | 8.42
Cc1ccc(N/C=C2\C(=O)C3(C)CCC2C3(C)C)cc1C (stereo not drawn) | – | > 100
COc1ccc(-c2ccc(OC)c([C@H]3[C@@H]4C=CCC[C@@]4(C)C(=O)N3Cc3ccccc3)c2)cc1OC | 13.1 | 24.8
NC(=S)N/N=C/c1ccccc1OCCSc1ccc(Cl)cc1 | 45.7 | > 100

From PubChem BioAssay AID449762 (Southern Research Specialized Biocontainment Screening …, 2010)
